Measured values taken from US8748464B2, “Use of SIRT1 activators or inhibitors to modulate an immune response” (The J. David Gladstone Institutes, priority 2008, dated 2014).

What was measured:
[1] = tested on: FLAG-FoxP3 in 293 T cells; assay: Western blot of FLAG-FoxP3 (wild type or mutant) or FLAG-AML1/Runx1 expression in 293 T cells; assay type: cell-based; details: for expression of FLAG-AML1/Runx1 / FoxP3 protein expression: Ex-527 50 μM or TSA 400 nM, 16 hours; for FoxP3 protein expression: nicotinamide 5 mM
Procedure: To determine whether the three newly identified acetylated lysine residues regulate FoxP3 stability, mutants were generated in which each of three lysine residues was substituted to arginines (KR), a conservative mutation that preserves the positive charge of the residue.
To investigate the effect of SIRT1 inhibition and the three newly identified acetylation sites on FoxP3 protein stability, wild type and 3KR mutant FoxP3 protein expression was measured after treatment with cycloheximide (CHX), a general inhibitor of protein translation.
(B) Scheme of acetylated lysine residues identified by mass spectrometry using immunoprecipitated FLAG-FoxP3 protein. The murine protein is shown.

[2] = tested on: naïve CD4+ T cells undergoing differentiation into iTreg cells; assay: Intracellular flow cytometry of FoxP3 in naïve CD4+ T cells differentiating into iTreg cells; assay type: cell-based, mouse
Procedure: To gain insight into the role of SIRT1 in Treg biology, SIRT1 protein expression during ex vivo Treg differentiation was analyzed. Naïve CD4^+ T cells (CD4+CD25-CD69-CD44-) were isolated from mouse spleen and lymph nodes and were activated by anti-CD3/CD28 antibodies alone or in combination with cytokines driving differentiation into T helper (Th) 1, Th2 or induced Treg (iTreg) cells. While SIRT1 expression was increased upon CD3/CD28 activation, it was decreased after T cell differentiation, most noticeably in iTregs (FIG. 9A, lane 5).
To test whether SIRT1 plays a role in iTreg differentiation, SIRT1 was overexpressed during iTreg differentiation. Activated CD4+ cells were infected with bicistronic retroviral vectors expressing SIRT1 and the Thy1.1 surface marker (MSCV-SIRT1-Thy1.1) or a control vector expressing Thy1.1 alone (MSCV-Thy1.1). Cell were further differentiated into Tregs in the presence of recombinant human TGF-β and recombinant human IL-2 as previously described (Fu et al., 2004). After 3 days, cells were stained for surface Thy1.1 and intracellular FoxP3 and analyzed by flow cytometry. […] Cells were cultured 3 more days in IL-2 alone and were reanalyzed at day 6 after infection. Both, the number of FoxP3^+/Thy1.1^+ cells and FoxP3 MFI were decreased in SIRT1-expressing cells (FIG. 9B). The opposite result was observed when SIRT1 was knocked down during iTreg differentiation using lentiviral shRNA vectors.
To test the effect of Ex-527 on FoxP3 expression in […] FoxP3-expressing cells, Ex-527 was added to naïve CD4+ T cells undergoing differentiation into iTreg cells. The number of FoxP3-expressing cells increased up to 3-fold in the presence of Ex-527 as compared to cells treated with the drug vehicle alone (FIG. 12A). […]
FIGS. 12A and 12B. […] (B) Flow cytometry of GFP in natural Treg populations isolated from GFP-FoxP3 knock-in mice, in which GFP is expressed as a fusion protein with FoxP3. […] Cells were further cultured with either DMSO or Ex-527 for additional 2 and 7 days and FoxP3 expression was analyzed as in (A). […]

[3] = tested on: natural thymus-derived Treg cells; assay: Ex vivo expansion of natural Tregs from GFP-Foxp3 knock-in mice, flow cytometry of GFP and western blot; assay type: cell-based, mouse
Procedure: To test the effect of Ex-527 in natural thymus-derived Treg cells, GFP+ cells were isolated from GFP-Foxp3 knock-in mice, in which green fluorescent protein (GFP) is expressed as a fusion protein with FoxP3. Total CD4+ T cells were isolated from spleen and lymph nodes of these mice, and GFP+ T cells were sorted with >95% purity. GFP+ T cells were expanded by anti-CD3/CD28 beads and IL-2 for 5 days when Ex-527 or dimethylsulfoxide (DMSO) was added. Two days later, 75% of cells were GFP-positive regardless whether Ex-527 was added or not; however, the MFI of GFP was increased in Ex-527-treated cells (FIG. 12B, day 7). 7 days later, only 5% of cells remained GFP-positive in control-treated cells versus 45% in Ex-527-treated cultures (FIG. 12B, day 12). In addition, the […] of FoxP3 remained higher in Ex-527-treated cells versus control-treated cells (387 versus 263). […] No FoxP3 expression was detected from either GFP-negative cells or cells expanded in the absence of Ex-527 (FIG. 12B). […] Thus, SIRT1 inhibitors, e.g., Ex-527, can be used to maximize ex vivo or in vivo expansion of Tregs for therapeutic purposes.
FIGS. 12A and 12B. Inhibition of SIRT1 activity by Ex-527 promotes differentiation of iTreg cells and FoxP3 expression in nTreg cells. (A) Intracellular flow cytometry (% FoxP3+ cells and MFI) of FoxP3 in induced Tregs treated during differentiation with Ex-527 (50 μM) or DMSO as control. Shown are averages of three independent experiments (mean±SD). (B) Flow cytometry of GFP in natural Treg populations isolated from GFP-FoxP3 knock-in mice, in which GFP is expressed as a fusion protein with FoxP3. GFP+ nTregs were expanded by α-CD3/CD28 beads and hIL-2 (2000 U/ml) for 5 days. Cells were further cultured with either DMSO or Ex-527 for additional 2 and 7 days and FoxP3 expression was analyzed as in (A). Western blot analysis of FoxP3 in cell lysates from GFP−, GFP+, and GFP+ cultures expanded as described in the presence of DMSO or EX-527.

[4] = tested on: Jurkat T cells; assay: IL-2 protein ELISA in supernatant of α-CD3-stimulated Jurkat T cells infected with EF-1α-GFP or EF-1α-Tat-GFP viruses; assay type: cell-based, human; details: 16 hrs
Procedure: Lentiviral vectors, which contained the heterologous elongation factor 1α (EF-1α) promoter driving Tat and GFP expression, were generated. High titer viral stocks were produced and used to infect Jurkat T cells. […] Infected cultures were stimulated with antibodies specific for the CD3 receptor and treated with increased concentrations of resveratrol (0.4 μM, 2 μM, and 10 μM), a known SIRT1 activator for 16 hrs. IL-2 protein was measured in the culture supernatant by ELISA assay. Following stimulation with α-CD3 antibody, IL-2 protein was superinduced ˜4-fold by wild type Tat (FIG. 8A). In cells expressing Tat, ˜2300 pg/ml of IL-2 protein was detected in response to α-CD3 treatment, whereas in control cells, only ˜600 pg/ml of IL-2 protein was induced.
The effects of small molecule of SIRT1 ([…]) on T cell hyperactivation in Tat-expressing cells were examined. Jurkat T cells were infected with EF-1α-GFP or EF-1α-Tat-GFP viruses (FIG. 8B). Infected cultures were stimulated with α-CD3 antibody and treated with SRT2183 (0.2, 1, and 5 μM) for 16 hrs.
FIGS. 8A and 8B. Resveratrol and small molecule activator of SIRT1 (SRT2183) suppresses T cell hyperactivation by Tat. (A) IL-2 protein levels measured by ELISA in the supernatant of infected cultures. 24 hrs after infection with EF1α-GFP and EF1α-Tat-GFP viruses, Jurkat T cells were stimulated with α-CD3 antibody in the presence of increased concentrations of resveratrol (0.4, 2, and 10 μM) for 16 hrs. (B) 24 hrs after infection with EF1α-GFP and EF1α-Tat-GFP viruses, Jurkat T cells were stimulated with α-CD3 antibody in the presence of increased concentrations of SRT2183 (0.2, 1, and 5 μM) for 16 hrs. IL-2 protein levels were measured by ELISA in the supernatant of infected cultures.

[5] = tested on: FLAG-FoxP3 in 293 T cells; assay: Immunoprecipitation/western blot of acetylated FLAG-FoxP3 or HA-AML1/Runx1 in 293 T cells cotransfected with p300; assay type: cell-based
Text: FIGS. 10A-D. SIRT1 interacts with FoxP3 and inhibition of SIRT1 deacetylase activity increases acetylation of FoxP3. (A) Communoprecipitation/western blot analysis of FLAG-tagged FoxP3 and HA-tagged SIRT1 after transfection of corresponding expression vectors or empty vector controls into 293T cells. (B) Communoprecipitation assay of SIRT1 and FoxP3 deletion mutants. A schematic summary of the binding of FoxP3 mutants to SIRT1 is shown. The forkhead box (FH) indicates the DNA binding domain ZnF, zinc finger domain; LZ, leucine zipper. […] An expression vector for the p300 acetyltransferase was cotransfected with FoxP3. (D) The same experiment as in (C) using HA-AML1/Runx1. Immunoprecipitations were performed with either anti-FLAG antibody coupled to agarose (α-FLAG agarose) (C) or anti-hemagglutinin antibody coupled to agarose (α-HA agarose) (D) and western blotting with rabbit polyclonal antibody to acetyl-lysine (α-acetyl lysine) (α-AcK), α-FLAG or α-HA antibodies.

[6] = 50 μM during iTreg differentiation
[7] = day 7 (two days after addition)

NC(=O)C1CCCc2c1[nH]c1ccc(Cl)cc21 (centres unmarked) [Ex-527, 6-chloro-2,3,4,9-tetrahydro-1H-carbazole-1-carboxamide]
FoxP3 mRNA levels ([1]; 293 T cells): No effect | expression of K31R mutant FLAG-FoxP3 ([1]; 293 T cells, 50 μM): increased expression of the K31R mutant to comparable levels as the wild type FoxP3 protein | expression of K262/267R double mutant FLAG-FoxP3 ([1]; 293 T cells, 50 μM): could not further increase | increase of expression of K262R and K267R mutant FLAG-FoxP3 ([1]; 293 T cells, 50 μM): less visible | expression of FLAG-AML1/Runx1 ([1]; 293 T cells): unchanged | FoxP3 protein expression ([1]; 293 T cells): increased FoxP3 protein expression to a similar extent as nicotinamide | wild type FoxP3 protein expression after cycloheximide ([1]; 4 h of CHX treatment): stabilized FoxP3 protein expression | 3KR mutant FoxP3 protein expression after cycloheximide ([1]; 4 hour-time point of CHX treatment): no further stabilization | increase of mean fluorescent intensity (MFI) of FoxP3 expression [2, 6]: up to 2 fold | increase of number of FoxP3-expressing cells vs drug vehicle [2, 6]: up to 3 fold | FoxP3 mRNA levels in iTreg cells ([2]; during iTreg differentiation): no effect | GFP-positive cells [3, 7]: 75% | MFI of GFP [3, 7]: increased | FoxP3 expression by western blot analysis ([3]; day 12): remained visible | MFI of FoxP3 ([3]; day 12): 387 | GFP-positive cells ([3]; day 12 (7 days after addition)): 45%

O=C(Nc1ccccc1-c1cn2c(CN3CC[C@@H](O)C3)csc2n1)c1ccc2ccccc2c1 [SRT2183]
IL-2 protein in Tat expressing cells ([4]; 5 μM): suppressed the production of IL-2 protein | IL-2 protein in control cells ([4]; 5 μM): slight increase in IL-2 protein | IL-2 protein in control and Tat expressing cells ([4]; 0.2 and 1 μM): caused increases in IL-2 protein

CC(/C=C/C(=O)NO)=C\[C@@H](C)C(=O)c1ccc(N(C)C)cc1 [trichostatin A]
acetylation levels of FoxP3 [5]: hyperacetylation | acetylation of AML1/Runx1 [5]: increased to the same extent | expression of FLAG-AML1/Runx1 ([1]; 293 T cells): increased both FoxP3 and AML1/Runx1 expression | FoxP3 protein expression ([1]; 293 T cells): increased both FoxP3 and AML1/Runx1 expression
